Activity calls are given as the source filed them. The calls are words filed in the database; no cut-off is given here.
Assays:
[1] = Toxicity in female BALB/c mouse xenografted with human MDA-MB-231 cells assessed as effect on pathological changes in spleen at 5 to 20 mg/kg, sc by H and E staining based analysis; format: organism-based; conditions: in vivo, dose 5-20 mg/kg
MDA-MB-231 [2] = experiment: Antiproliferative activity against human MDA-MB-231 cells xenografted in female BALB/c mouse model assessed as fold change in upregulation of BIP protein level at 10 mg/kg administered subcutaneously incubated for 24 hrs by Western blot analysis (reference value: 1.00%); format: functional; conditions: route sc
[3] = biological target: Eukaryotic translation initiation factor 3 subunit D (Homo sapiens) (UniProt O15371); experiment: Induction of thermal stabilization of EIF3D in human BT-549 cells at 1 uM by CETSA analysis; format: cell-based
MDA-MB-231 [4] = experiment: Antiproliferative activity against human MDA-MB-231 cells xenografted in female BALB/c mouse model assessed as fold change in inhibition of PKM2 expression at 5 mg/kg administered subcutaneously incubated for 24 hrs by Western blot analysis (reference value: 1.00%); format: functional; conditions: route sc
MDA-MB-231 [5] = experiment: Antiproliferative activity against human MDA-MB-231 cells xenografted in female BALB/c mouse model assessed as inhibition of Ki-67 expression at 5 to 20 mg/kg administered subcutaneously by immunohistochemical staining based microscopic analysis; format: functional, organism-based; conditions: dose 5-20 mg/kg, route sc
MDA-MB-231 [6] = experiment: Antiproliferative activity against human MDA-MB-231 cells xenografted in female BALB/c mouse model assessed as fold change in upregulation of BAX protein level at 10 mg/kg administered subcutaneously incubated for 24 hrs by Western blot analysis (reference value: 1.00%); format: functional; conditions: route sc
BT-549 [7] = experiment: Inhibition of cell migration in human BT-549 cells assessed as decrease in MMP-2 level incubated for 24 hrs by Western blot analysis; format: functional, cell-based; conditions: dose 0.5-2 µM
[8] = Toxicity in female BALB/c mouse xenografted with human MDA-MB-231 cells assessed as effect on pathological changes in liver at 5 to 20 mg/kg, sc by H and E staining based analysis; format: organism-based; conditions: in vivo, dose 5-20 mg/kg
MDA-MB-231 [9] = experiment: Antiproliferative activity against human MDA-MB-231 cells xenografted in female BALB/c mouse model assessed as fold change in downregulation of MMP-2 protein level at 20 mg/kg administered subcutaneously incubated for 24 hrs by Western blot analysis (reference value: 1.00%); format: functional; conditions: route sc
BT-549 [10] = experiment: Induction of apoptosis in human BT-549 cells assessed as viable cells at 1 uM incubated for 24 hrs by Annexin V-PI staining based flow cytometric analysis (reference value: 93.0%); format: functional; conditions: read-out: Activity
[11] = (§1) Selectivity ratio of IC50 for antiproliferative activity against human MCF-10A cells assessed as inhibition of cell proliferation incubated for 24 hrs by MTT assay to IC50 for antiproliferative activity against human MDA-MB-231 cells assessed as inhibition of cell proliferation incubated for 24 hrs by MTT assay; format: cell-based; conditions: MCF-10A cells versus MDA-MB-231 cells, read-out: Ratio IC50
BT-549 [12] = experiment: Induction of apoptosis in human BT-549 cells assessed as late apoptotic cells at 0.5 uM incubated for 24 hrs by Annexin V-PI staining based flow cytometric analysis (reference value: 2.95%); format: functional
Mitochondrial membrane = experiment: Disruption of mitochondrial potential loss in human MDA-MB-231 cells assessed as decrease in JC-1 aggregates at 1 uM incubated for 24 hrs by JC-1 staining based flow cytometric analysis (Rvb =98.1%); format: cell membranes; set-up: scale not given: the % may be the effect or the level left
BT-549 [13] = experiment: Downregulation of LDHA expression in human BT-549 cells at 1 uM incubated for 24 hrs by DAPI staining based immunofluorescence analysis; format: functional, cell-based
MDA-MB-231 [14] = experiment: Induction of apoptosis in human MDA-MB-231 cells assessed as necrotic cells at 2 uM incubated for 24 hrs by Annexin V-PI staining based flow cytometric analysis (reference value: 1.29%); format: functional
BT-549 [15] = experiment: Antiproliferative activity against human BT-549 cells xenografted in female BALB/c mouse model assessed as fold change in upregulation of BAX protein level at 10 mg/kg administered subcutaneously incubated for 24 hrs by Western blot analysis (reference value: 1.00%); format: functional; conditions: route sc
[16] = Toxicity in female BALB/c mouse assessed as change in spleen administered subcutaneously measured upto 16 days; format: tissue-based; conditions: in vivo, sc, 384 h, time < 16 day
MDA-MB-231 [17] = experiment: Induction of apoptosis in human MDA-MB-231 cells assessed as late apoptotic cells at 1 uM incubated for 24 hrs by Annexin V-PI staining based flow cytometric analysis (reference value: 1.83%); format: functional
MDA-MB-231 [18] = experiment: Induction of apoptosis in human MDA-MB-231 cells incubated for 24 hrs by Annexin V-PI staining based flow cytometric analysis; format: functional, cell-based; conditions: dose 0.5-2 µM
BT-549 [19] = experiment: Induction of apoptosis in human BT-549 cells incubated for 24 hrs by Annexin V-PI staining based flow cytometric analysis; format: functional, cell-based; conditions: dose 0.5-2 µM
MDA-MB-231 [20] = experiment: Antitumor activity against human MDA-MB-231 cells xenografted in female BALB/c mouse model assessed as reduction in tumor weight administered subcutaneously and measured every day; format: functional, cell-based; conditions: dose 5-20 mg/kg, route sc
[21] = Toxicity in female BALB/c mouse xenografted with human MDA-MB-231 cells assessed as effect on pathological changes in lung at 5 to 20 mg/kg, sc by H and E staining based analysis; format: organism-based; conditions: in vivo, dose 5-20 mg/kg
MDA-MB-231 [22] = experiment: Inhibition of cell migration in human MDA-MB-231 assessed as reduction in wound healing ability at 0 to 2 uM incubated for 48 hrs by Wound healing assay; format: functional, cell-based; conditions: dose 0-2 µM
MDA-MB-231 [23] = experiment: Induction of ER stress in human MDA-MB-231 cells assessed as upregulation of BIP protein level at 1 uM incubated for 24 hrs by DAPI staining based immunofluorescence analysis; format: functional, cell-based
MDA-MB-231 [24] = experiment: Antiproliferative activity against human MDA-MB-231 cells xenografted in female BALB/c mouse model assessed as increase in E-cadherin level at 5 to 20 mg/kg administered subcutaneously by immunohistochemical staining based microscopic analysis; format: functional, organism-based; conditions: dose 5-20 mg/kg, route sc
[25] = as §1, with “48” for “24”, “BT-549” for “MDA-MB-231”; format: toxicity, cell-based; conditions: MCF-10A cells versus BT-549 cells, read-out: Ratio IC50
BT-549 [26] = experiment: Antiproliferative activity against human BT-549 cells xenografted in female BALB/c mouse model assessed as fold change in downregulation of MMP-2 protein level at 10 mg/kg administered subcutaneously incubated for 24 hrs by Western blot analysis (reference value: 1.00%); format: functional; conditions: route sc
MDA-MB-231 [27] = experiment: Antiproliferative activity against human MDA-MB-231 cells xenografted in female BALB/c mouse model assessed as fold change in downregulation of MMP-2 protein level at 5 mg/kg administered subcutaneously incubated for 24 hrs by Western blot analysis (reference value: 1.00%); format: functional; conditions: route sc
BT-549 [28] = experiment: Induction of ER stress in human BT-549 cells assessed as activation of BIP protein level incubated for 24 hrs by Western blot analysis; format: functional, cell-based; conditions: dose 0.5-2 µM
[29] = biological target: Eukaryotic translation initiation factor 3 subunit D (Homo sapiens) (UniProt O15371); experiment: Induction of thermal stabilization of EIF3D in human MDA-MB-231 cells at 1 uM by CETSA analysis; format: cell-based
BT-549 [30] = experiment: Antiproliferative activity against human BT-549 cells xenografted in female BALB/c mouse model assessed as fold change in upregulation of BIP protein level at 10 mg/kg administered subcutaneously incubated for 24 hrs by Western blot analysis (reference value: 1.00%); format: functional; conditions: route sc

Eukaryotic translation initiation factor 3 subunit D (Homo sapiens), sequence (O15371 whole entry): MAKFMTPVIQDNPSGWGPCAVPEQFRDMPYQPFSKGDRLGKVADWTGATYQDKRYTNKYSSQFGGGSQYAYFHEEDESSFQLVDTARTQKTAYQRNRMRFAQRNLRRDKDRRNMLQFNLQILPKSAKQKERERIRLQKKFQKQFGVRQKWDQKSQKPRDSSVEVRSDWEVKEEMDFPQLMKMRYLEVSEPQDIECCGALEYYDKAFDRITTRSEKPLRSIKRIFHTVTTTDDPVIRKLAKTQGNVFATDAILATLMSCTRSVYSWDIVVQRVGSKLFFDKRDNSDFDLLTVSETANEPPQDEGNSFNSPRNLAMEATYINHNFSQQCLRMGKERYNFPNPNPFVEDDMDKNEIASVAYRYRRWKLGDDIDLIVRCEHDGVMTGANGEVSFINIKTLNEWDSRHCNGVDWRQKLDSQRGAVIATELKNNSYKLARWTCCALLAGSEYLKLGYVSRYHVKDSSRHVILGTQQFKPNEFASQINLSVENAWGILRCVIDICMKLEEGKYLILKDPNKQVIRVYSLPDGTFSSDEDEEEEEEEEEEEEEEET

With `CC(C)=CCC/C(C)=C/[C@H]1OC(=O)CC12C[C@H](OC(=O)Cc1ccc(NC(=O)/C=C/c3ccccc3)cc1)C=CC2=O` (stereo partly specified) the Activity [1] was “Non-Toxic”, the “fold change (FC)” value (MDA-MB-231 [2]) was 2.1 and the Activity [3] was “Active”. For the same molecule, the “fold change (FC)” value (MDA-MB-231 [4]) was 0.81, the Activity (MDA-MB-231 [5]) was “Active” and the “fold change (FC)” value (MDA-MB-231 [6]) was 1.13. For the same molecule, the inhibition (BT-549 [7]) was “Dose-Dependent Effect”, the Activity [8] was “Non-Toxic” and the “fold change (FC)” value (MDA-MB-231 [9]) was 0.26. For the same molecule, the viability at 1 µM (BT-549 [10]) was 66%, the selectivity ratio at 24 h [11] was 67.2 and the Activity (BT-549 [12]) was 3.62%. For the same molecule, the Activity (Mitochondrial membrane) was 58.2%, the Activity (BT-549 [13]) was “Active” and the Activity (MDA-MB-231 [14]) was 6.53%. The “fold change (FC)” value (BT-549 [15]) was 1.61, the Activity [16] was “Non-Toxic” and the Activity (MDA-MB-231 [17]) was 41.2%. The Activity (MDA-MB-231 [18]) was “Dose-Dependent Effect”, the Activity (BT-549 [19]) was “Dose-Dependent Effect” and the Activity (MDA-MB-231 [20]) was “Dose-Dependent Effect”. For the same molecule, the Activity [21] was “Non-Toxic”, the inhibition (MDA-MB-231 [22]) was “Active” and the Activity (MDA-MB-231 [23]) was “Active”. The Activity (MDA-MB-231 [24]) was “Active”, the selectivity ratio at 48 h [25] was 72.7 and the “fold change (FC)” value (BT-549 [26]) was 0.75. For the same molecule, the “fold change (FC)” value (MDA-MB-231 [27]) was 0.44, the Activity (BT-549 [28]) was “Dose-Dependent Effect” and the Activity [29] was “Active”. For the same molecule, the “fold change (FC)” value (BT-549 [30]) was 1.9.
